For experiment [1], the system named is male C57BL/6 mice. As to the kind of experiment: Cachexia induced by Lewis lung carcinoma. In kind it is in vivo, mouse. Conditions: Day 28; Treamid 10 mg/kg intragastrically from Day 15. On the procedure:
Cachexia developed in male C57Bl/6 mice when simulating hematogenously metastasizing Lewis lung carcinoma (LLC). Tumor cells were injected once subcutaneously into the mice at a concentration of 5×10^6 in 0.1 ml of physiological saline (Yu-Chou T., Samuel K. K., I-Lu L. et al. Preclinical Investigation of the Novel Histone Deacetylase Inhibitor AR-42 in the Treatment of Cancer-Induced Cachexia//JNCI J Natl Cancer Inst (2015) 107(12)).
The day of the injection of tumor cells was taken as Day 1 of the experiment. Treamid was administered at a dose of 10 mg/kg intragastrically once daily, every day from Day 15 to […]. The animals were weighed one day before the introduction of tumor cells (Day 0) and on Day 28 of the experiment. On Day 28, the animals were euthanized in a CO2 chamber, and blood was collected. The level of free testosterone was determined in the blood serum by enzyme immunoassay.

A further experiment has as its system male rats. Put plainly: Benign prostatic hyperplasia (BPH) model induced with Sulpiride, prostate weight and morphometry. In kind it is in vivo, rat. How it is done:
This is manifested in a decrease in the severity of the morphological changes typical in these diseases. CAP was simulated by suturing the ventral lobe of the gland with a silk thread, and BPH was simulated by the administration of Sulpiride. The reference drug was Prostamol Uno.
Animals with BPH received Teramide intragastrically for 2 months at a dose of 0.5 mg/kg.
Experiments were performed on 40 male Wistar rats (3 months of age). To simulate chronic abacterial prostatitis, the ventral lobe of the prostate was sutured with a silk thread (under anesthesia). The model of benign prostatic hyperplasia (BPH) was simulated in rats by inducing hyperprolactinaemia, for which male rats were intraperitoneally injected with Sulpiride at a dose of 40 mg/kg every day for 2 months (Eglonil, Sanofi Winthrop Industry, France).
The ability of Treamid to normalize the structure of the prostate gland was studied in the presence of administration of Sulpiride. For this purpose, Treamid was administered intragastrically for 2 months at a dose of 0.5 mg/kg simultaneously with Sulpirid. The control animals received a solvent (2% starch mucus) in an equivalent volume. The animals of the comparison group were injected intragastrically with a solution of Prostamol Uno at a dose of 50 mg/kg. At the end of the administration course, the animals were weighed and euthanized in a CO2 chamber. Sulpiride is known to cause the development of BPH in the lateral lobe of the gland in rats [Van Coppenolle Fabien, Christian Slomianny, Francoise Carpentier Effects of hyperprolactinemia on rat prostate growth: evidence of androgeno—dependence.//Physiol. Endocrinol. Metab.—2001.—P. 120-129]. In this regard, this lobe was dissected. Its weight, weight coefficient, and volume were determined. Further, it was subjected to a morphological analysis. The lateral lobe of the prostate gland was fixed in 10% formalin and poured into paraffin, followed by preparation of sections of a thickness of 5 μm. Deparaffined sections of the gland were stained with hematoxylin and eosin. On the histological sections, the presence of proliferative centers and daughter acini were determined per standard section area. In addition, the area of the epithelial and stromal structures was measured on the standard area of a histological section. These parameters were determined by using a computer graphic analysis on the standard area of a histological section (micrographs of 10 serial visual fields performed by an AxioCam Erc5s camera mounted on an AxioLab A1 microscope (×10 lens, ×10 eyepiece), with an image transfer software of “AxioVision LE”, Carl Zeisis). The stromal-epithelial ratio was defined as a ratio of the area of stroma to the area of epithelium.
The effectiveness of the test compound was estimated by the following criteria: lower intensity of morphological symptoms of benign prostatic hyperplasia:—a decrease in the number of proliferation centers and daughter acini, and a decrease in the area of the epithelium.

The next experiment has as its system male Wistar rats. Put plainly: Pair-test of sexual behavior, seasonal suppression of copulatory activity. It is filed as in vivo, rat. How it is done:
Seasonal suppression of reproductive activity was simulated by carrying out the experiment in the winter period (end of December). As a background group, intact animals (3 months of age) were tested in June.
The experiments were carried out on 27 male Wistar rats of reproductive age (3 months). Treamid at a dose of 5 mg/kg and reference drug Sildenafil (at a dose of 3 mg/kg) were administered intragastrically […], once daily for 15 days. The sexual activity was estimated by the pair-test of sexual behavior. The test was carried out twice: before administration and one hour after the last administration of Treamid. The rats of the control groups receiving the solvent were tested at the same time as the animals of the experimental groups.
The experiment also comprised the use of female rats in the estrus stage caused by a preliminary 4-fold injection of the Synestrel. The effectiveness of Treamid was estimated by the following indices: latency until the first mating attempt (LFM), the number of mating attempts (MN), and the number of ejaculations (EN). The obtained data were compared with those of the same animals before the administration of the tested compound and with the data of the control group (the second test).

The test system of experiment [2] is male C57BL/6 mice. Put plainly: Bleomycin-induced pulmonary fibrosis model. In kind it is in vivo, mouse. Conditions: Day 21; 10 mg/kg. On the procedure:
Toxic damage of the lung alveolar epithelium causing pulmonary fibrosis was simulated by intra-tracheal administration of the cytostatic bleomycin once in a dose of 80 μg/mouse in 30 μl of physiological saline. Anesthesia during the operation was achieved by using inhalation ether. The surgical field was disinfected with a 70% ethanol solution and hair on this field was removed. The skin, subcutaneous tissue and own fascia of the neck were dissected along the middle line of the neck. The muscles were moved apart on the ventral side of the trachea by the method of blunt separation of tissues. Injection of bleomycin was made on inhalation along the airflow by a Hamilton syringe. After suturing the wound, the surgical field was treated with an antiseptic. The administration of bleomycin was taken as Day 0 of the experiment.
The effectiveness of Treamid and the reproduction of pulmonary fibrosis were estimated by the number and intensity of the synthesis of connective tissue in the lungs, as well as by the histoarchitectonics of the lungs.
Thus, the staining of histological preparations of the lungs of C57BL/6 mice with picrofuxin according to Van Gieson and subsequent visualization of the connective tissue made it possible to register a significant proliferation of the connective tissue, mainly around the vessels and bronchioles (FIG. 5, Table 36). In addition, lung homogenates of the animals of the intact control and pathological control were investigated by enzyme immunoassay.

The mark [3] stands for this setting: Treamid 0.5 mg/kg 2 months, Prostamol Uno 50 mg/kg.
The mark [4] stands for this setting: first test, before administration, winter period.
Setting [5] is: second test, one hour after last administration, Treamid 5.0 mg/kg, Sildenafil 3 mg/kg intragastrically, 15 days.

The record followed here is patent publication US10076511B2, “Bisamide derivative of dicarboxylic acid as an agent for stimulating tissue regeneration and recovery of diminished tissue function” (TREAMID GmbH, priority 2015, dated 2018).

Values joined by “and” are separate entries in the source; they are usually repeats but may differ in a detail not shown here. Equal values may be shown once. Marks after values point to notes of the source that are not given here.

On to `O=C(CCCC(=O)NCCc1ncc[nH]1)NCCc1ncc[nH]1` [Treamid], for which, in the experiment with male C57BL/6 mice [1], the Body weight, including the subtraction of the tumor weight was 23.8 ± 0.57 g and the “The free testosterone level (pg/ml) in the blood serum” value was 3.2 ± 0.3*• pg/ml. For the same compound, in the experiment with male rats (setting [3]), the “Volume of the lateral lobe of the prostate gland, cm^3” value is 0.62 ± 0.14# cm^3; the “Weight coefficient of the lateral lobe of the prostate gland” value was 0.69 ± 0.12 mg/g; the “Weight of the lateral lobe of the prostate gland” value turned out to be 381.67 ± 70.30 mg. In the experiment with male rats (group M ± m), the “Relative area (%) of the acinar epithelium on the standard area of a section of the lateral lobe” value was determined as 13.89 ± 2.08 %, the “Relative area (%) of the stroma on the standard area of a section of the lateral lobe” value turned out to be 45.66 ± 2.30 %, the “The number of daugter proliferative centers (abs.)” value is listed as 1.60 ± 0.60 abs and the “The number of structures (abs.) consisting of 2-3 glandules tightly adjacent to each other” value was 1.60 ± 0.81 abs. Moreover, in the experiment with male rats (individual animals), the “Relative area (%) of the acinar epithelium on the standard area of a section of the lateral lobe” value was 10.26% and 14.09% and 16.30% and 20.19% and 8.61%; the “Relative area (%) of the stroma on the standard area of a section of the lateral lobe” value was 48.61% and 45.59% and 44.14% and 38.12% and 51.82%; the “The number of daugter proliferative centers (abs.)” value was 3 abs. (2×) and 1 abs. (2×) and 0 abs; the “The number of structures (abs.) consisting of 2-3 glandules tightly adjacent to each other” value was 1 abs. and 3 abs. and 4 abs. and 0 abs. (2×). The “decrease of latency until the first mount after administration compared to before” value with male Wistar rats (Treamid 5 mg/kg) is 1.8 times. In addition, the “increase of total number of mating attempts” value in the experiment with male Wistar rats (Treamid 5 mg/kg, statistically insignificant) is 1.8 times. In addition, in the experiment on male Wistar rats (setting [4]), the “LFM” value is 462.00 ± 117.81 s; the “the number of ejaculations, %” value was 0%; the “the number of mounts, abs.” value came to 3.67 ± 1.34 abs. In the experiment on male Wistar rats (setting [5]), the “LFM, sec” value is recorded as 251.33 ± 103.86♦ sec and the “the number of mounts, abs.” value amounted to 6.56 ± 1.68 abs. Besides, in the experiment with male C57BL/6 mice [2], the “Hydroxyproline (μg/ml) in the lungs” value worked out at 27.97 ± 2.2 µg/mL, the “The content of connective tissue (%) in the lungs” value is 1.17 ± 0.20• %, the “Total collagen (mg/ml) in the lungs” value was found to be 23.4 ± 1.7 mg/mL and the “Type I collagen (ng/ml) in the lungs” value is 201.6 ± 18 ng/mL.
